Assay results: US11026943B2, “Aminoquinoline derivatives and uses thereof” (UNIVERSITY OF DELHI, priority 2012, dated 2021)

Experiments:
[1] = system: murine microglial BV-2 cells; format: cell-based, mouse; conditions: 10 ng/ml LPS for 4 hrs, AQ 10 and 15 μM
Description: To prepare primary cultures of DA neurons, the ventral mesencephalon was removed from 14 day gestation Sprague Dawley rat embryo (Charles River, Cambridge, Mass.). Tissues were incubated with 0.01% trypsin in MEM (MEM, Invitrogen) for 10 min at 37° C. and triturated using a constricted Pasteur pipette. DA neurons were plated at 1.0×10^5 cells per 9 mm diameter glass cover slip precoated with 100 μg/ml poly-D-lysine (Sigma, St. Louis, Mo.) and 4 μg/ml laminin (Invitrogen). DA neurons were maintained at 37° C. in a humidified 5% CO2 atmosphere in minimum essential medium supplemented with 10% FBS (Hyclone), 2 mM glutamine and 6.0 g/l glucose. At 5 or 6 days in vitro, DA neurons were washed with MEM and treated with various experimental reagents for the time periods indicated. Reagents used were 6-OHDA (Sigma), N-acetyl-cysteine, N-benzyloxycarbonyl-Val-Ala-Asp-fluoromethylketone (Z-VAD-fink; Enzyme Systems Products, Livermore, Calif.). BV-2 cells, a microglial-like mouse cell line, were thawed and passaged until logarithmic growth was achieved. Cell cultures were maintained in 6-well culture plate (Corning Costar, Corning, N.Y.) at a concentration of 1.0×10^5 cells per well, in the growth medium consisting of DMEM (Sigma, St. Louis, Mo.), supplemented with 10% fetal bovine serum (FBS; Hyclone) heat inactivated at 56° C. for 30 min, 2 mM L-glutamine(Sigma) and 1× Pen-Strep (Invitrogen). […]

Nurr1 LBD [2] = biological target: T1, Nurr1 LBD (Mus musculus, UniProt Q06219); assay: Filter binding assay with [3H]-CQ (saturation and competition); conditions: 500 nM [3H]-CQ
T1 sequence (Q06219 328-598): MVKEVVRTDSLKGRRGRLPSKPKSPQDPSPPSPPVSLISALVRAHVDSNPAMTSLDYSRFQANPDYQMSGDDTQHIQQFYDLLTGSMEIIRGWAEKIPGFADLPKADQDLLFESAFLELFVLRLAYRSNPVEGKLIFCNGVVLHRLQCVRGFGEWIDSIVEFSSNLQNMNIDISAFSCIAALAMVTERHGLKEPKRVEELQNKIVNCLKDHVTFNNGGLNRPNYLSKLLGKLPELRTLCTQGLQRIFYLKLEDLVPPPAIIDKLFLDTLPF
Text: The basal level of transcriptional activity was normalized to 1. The bars represent means±SEM from three independent experiments. (FIG. 13C) Effect of Nurr1 specific siRNA on Nurr1 LBD's transactivation activity. […] (FIG. 13D) Human neuroblastoma SK-N-BE(2)C cells were transfected with the N-terminal flag-tagged SRC1 or SRC3 and the C-terminal myc-tagged full-length Nurr1. […] Cell lysates were immunoprecipitated (IP) using anti-flag antibodies and analyzed by immunoblotting (IB) using anti-myc antibodies. […] The fold induction was derived by comparing each luciferase activity to basal level obtained by non-SRC transfection. […] The concentrations (04) are shown next to the arrows. […] Specific binding was calculated as the difference of total and non-specific binding. The insert indicates Scatchard analysis of the specific binding. […] The data represent the average of triplicate from three independent experiments. All graphs, Kd, Ki, and Bmax values were generated using the non-linear regression program Prism version 5.02.
GF/C filters were wet with in binding buffer and placed on a 48-place filter manifold. […] Filters were washed with 4×100 ml binding buffer, dried, and mixed with 5 ml Scintiverse BD (Fisher) and radioactivity was determined in a Beckman LS6000SC liquid scintillation counter. […] The mixture was applied to GF/C filter and filter was washed and counted as described above.

Nurr1 LBD [3] = biological target: T1, Nurr1 LBD; assay: Nurr1 LBD GAL4 reporter assay (pSVGAL(DBD)-N(LBD), p8xGAL-Luc) in SK-N-BE(2)C cells; format: cell-based; conditions: read-out: EC50 Nurr1 LBD-based reporter activity
Text: The pTH2600LUC reporter construct contains the 2.6 kb upstream sequences of the rat tyrosine hydroxylase gene in front of a firefly luciferase gene in pGL3-basic vector. A Nurr1-expression plasmid, pSV40Nurr1, was kindly provided by Dr Orla M. Conneely at Baylor College of Medicine (Houston, Tex., USA). […] The VP16/SRC1 and VP16/SRC3 hybrid were constructed by inserting the transactivation domain of the VP16 protein upstream of SRC1 and SRC3, respectively. […] The recombinant proteins were purified by Ni-NTA column chromatography (Qiagen) according to the manufacturer's instruction. The integrity of all sequences was verified by DNA sequence analyses.
Human neuroblastoma SK-N-BE(2)C cells were maintained in Dulbecco's modified Eagle's medium (DMEM) supplemented with 10% fetal bovine serum. All culture media contained 100 units/ml penicillin and 100 μg/ml streptomycin. For transfection, cells were plated at 1.5×10^5 cells/well in the DMEM media without antibiotic into 24-well plates 1 day prior to transfection. Transfections were carried out by the Lipofectamine plus (Invitrogen) according to the manufacture's protocol. Total DNA amount was 0.5 μg per well with 0.1 μg of pRSV-β-gal as an internal control. 6 hours after transfection, compounds in the DMEM media with 1% charcoal-stripped fetal calf serum was added and incubated overnight. Cells from each well were lysed with 100 μl of lysis buffer, which contains 25 mM Tris-phosphate (pH 7.8), 2 mM DTT, 2 mM CDTA (1,2-diaminocyclohexane-N,N,N′,N′-tetraacetic acid), 10% glycerol, and 1% Triton X-100. Then equal volume of firefly luciferase substrate was added and the luciferase activity was measured using a Luminometer plate reader and normalized for beta-galactosidase activity.

Nurr1 LBD [4] = biological target: T1, Nurr1 LBD; assay: Fluorescence quenching assay, Nurr1-LBD; format: binding; conditions: increasing amounts of AQ, 0.1 nM-1 μM
Description: Fluorescence spectra were measured using a SHIMADZU fluorescence spectrophotometer (model RF-5310PC, SHIMADZU). The proteins (15 ng/μl) were incubated with different concentrations of AQ or kanamycin (0.1 nM, 1 nM, 10 nM, 100 nM and 1 μM in PBS buffer, pH7.0). Protein quenching was monitored at 25° C. by using 5 nm of excitation and 5 nm of emission slit-width. The excitation wavelength was 280 nm, and the emission spectra were measured between 290 and 430 nm.

[5] = system: Nurr1 recruitment to TH promoter NL1 and NL3; assay: Chromatin immunoprecipitation in PC12 cells; format: cell-based, rat; conditions: 20 μM AQ or 75 μM CQ for 15 hrs
Description: Error bars represent standard deviations.
Cells were washed with PBS, fixed with 1% formaldehyde, lysed, and sonicated according to the manufacturer's instruction (Active Motif). 25 μg of soluble chromatin DNA were co-immunoprecipitated 1 μg of Nurr1 specific antibody (E-20, Santa Cruz) or control antibody (rabbit IgG, santa Cruz). […] Values are shown as fold induction compared to mock treated control cells.

[6] = system: LBDs of Nur77, GR, LXR, RXR, PPARα, PPARγ; assay: Target selectivity: GAL4-LBD reporter assays of other nuclear receptors; format: cell-based; conditions: FIG. 19; 30 μM AQ

Ki (Nurr1 LBD [2]): 0.246 µM | EC50 (Nurr1 LBD [3]): ~20 µM | transcriptional activity of other nuclear receptors [6]: unable to induce
Structure (SMILES): CCN(CC)Cc1cc(Nc2ccnc3cc(Cl)ccc23)ccc1O [AQ, amodiaquine]
LPS-induced expression of pro-inflammatory cytokines [1]: suppresses | fluorescence quenching of Nurr1-LBD (Nurr1 LBD [4]): fluorescence intensity gradually decreased | Nurr1 recruitment to NL1 and NL3 sites of the TH promoter [5]: recruited to both NL1 and NL3 sites
